From patent US8053447B2, “11β-hydroxysteroid dehydrogenase type 1 active compounds” (High Point Pharmaceuticals, LLC, priority 2006, dated 2011)

molecular target: T1, h-11βHSD1 (Homo sapiens, UniProt P28845); experiment: 11βHSD1 enzyme assay (scintillation proximity assay, 3H-cortisone to 3H-cortisol); format: biochemical; conditions: extract of yeast transformed with h-11βHSD1; 120 nM 3H-cortisone, 4 mM β-NADPH, 60 min at 30° C., SPA
T1 construct: made in house
Description: Pharmacological Methods 11βHSD1 Enzyme Assay Materials
^3H-cortisone and anti-rabbit Ig coated scintillation proximity assay (SPA) beads were purchased from Amersham Pharmacia Biotech, β-NADPH was from Sigma and rabbit anti-cortisol antibodies were from Fitzgerald. An extract of yeast transformed with h-11βHSD1 (Hult et al., FEBS Lett, 441, 25 (1998)) was used as the source of enzyme. The test compounds were dissolved in DMSO (10 mM). All dilutions were performed in a buffer containing 50 mM TRIS-HCl (Sigma Chemical Co), 4 mM EDTA (Sigma Chemical Co), 0.1% BSA (Sigma Chemical Co), 0.01% Tween-20 (Sigma Chemical Co) and 0.005% bacitracin (Novo Nordisk A/S), pH=7.4. Optiplate 96 wells plates were supplied by Packard. The amount of ^3H-cortisol bound to the SPA beads was measured on TopCount NXT, Packard.
h-11βHSD1, 120 nM ^3H-cortisone, 4 mM β-NADPH, antibody (1:200), serial dilutions of test compound and SPA particles (2 mg/well) were added to the wells. The reaction was initiated by mixing the different components and was allowed to proceed under shaking for 60 min at 30° C. The reaction was stopped be the addition of 10 fold excess of a stopping buffer containing 500 μM carbenoxolone and 1 μM cortisone. Data was analysed using GraphPad Prism software.

T1 sequence (P28845 whole entry): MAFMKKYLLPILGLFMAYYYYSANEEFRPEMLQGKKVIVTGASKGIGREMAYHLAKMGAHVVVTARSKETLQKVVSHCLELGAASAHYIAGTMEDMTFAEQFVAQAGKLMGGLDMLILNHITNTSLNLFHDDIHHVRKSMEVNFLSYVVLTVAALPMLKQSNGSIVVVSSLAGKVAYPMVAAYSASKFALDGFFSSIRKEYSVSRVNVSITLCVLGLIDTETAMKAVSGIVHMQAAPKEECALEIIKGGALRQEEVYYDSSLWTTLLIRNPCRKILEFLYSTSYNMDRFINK

| IC50 [nM] | Compound |
| --- | --- |
| 118 | O=C(NC1C2CC3CC(C2)CC1C3)c1ccc(OC2CCC(NC(=O)C3CC3)CC2)cc1 (mixture of isomers) [Example 2c, cis/trans-4-[4-(Cyclopropanecarbonyl-amino)-cyclohexyl-oxy]-N-adamantan-2-yl-benzamide] |
| 678 | O=C(NC1C2CC3CC(C2)CC1C3)c1ccc(OC2CCC(C(=O)O)CC2)cc1 (mixture of isomers) [Example 4a, Cis/trans 4-[4-adamantan-2-ylcarbamoyl)-phenoxy]-cyclohexanecarboxylic acid] |
| 130 | CCOC(=O)C1CCC(Oc2ccc(C(=O)N3CC4(C)CC3CC(C)(C)C4)cc2)CC1 (stereo not shown) [Example 1a, 4-[4-(1,3,3-Trimethyl-6-aza-bicyclo[3.2.1]octane-6-carbonyl)-phenoxy]-cyclo-hexanecarboxylic acid ethyl ester] |
| 205 | O=C(NC1C2CC3CC(C2)CC1C3)c1ccc(OC2CCN(C(=O)C3CC3)CC2)cc1 (stereo not shown) [Example 1b, 4-(1-Cyclopropanecarbonyl-piperidin-4-yloxy)-N-ada-mantan-2-yl-benzamide] |
| 75 | O=C(NC1C2CC3CC(C2)CC1C3)c1ccc(OC2CCC(O)CC2)cc1 (stereo not shown) [Example 1d, N-Adamantan-2-yl-4-(4-hydroxy-cyclohexyloxy)-benzamide] |
| 190 | Cc1c[nH]c(SCC2CCC(Oc3ccc(C(=O)NC4C5CC6CC(C5)CC4C6)cc3)CC2)n1 (stereo not shown) [Example 1e, N-Adamantan-2-yl-4-[4-(4-methyl-1H-imidazol-2-yl-sulfanylmethyl)-cyclo-hexyloxy]-benzamide] |
| 465 | O=C(NC1C2CC3CC(C2)CC1C3)c1ccc(OCC2CCC(O)CC2)cc1 (stereo not shown) [Example 1f, 4-(4-Hydroxy-cyclohexyl-methoxy)-N-adamantan-2-yl-benzamide] |
| 1450 | O=C(O)C1CCC(Oc2ccc(C(=O)N3CC4CCC(CC4)C3)cc2)CC1 (stereo not shown) [Example 2a, 4-[4-(3-Aza-bicyclo[3.2.2]-nonane-3-carbonyl)-phen-oxy]-cyclohexane carbox-ylic acid] |
| 284 | CC(C)CC(=O)N1CCC(Oc2ccc(C(=O)NC3C4CC5CC(C4)CC3C5)cc2)CC1 (stereo not shown) [Example 2b, 4-[1-(3-Methyl-butyryl)-piperidin-4-yloxy]-N-ada-mantan-2-yl-benzamide] |
| 180 | O=C(NC1C2CC3CC(C2)CC1C3)c1ccc(OC2CCC(On3cccn3)CC2)cc1 (stereo not shown) [Example 2d, 4-[4-(Pyrazol-1-yloxy)-cyclohexyloxy]-N-adaman-tan-2-yl-benzamide] |
| 190 | O=C(NC1C2CC3CC(C2)CC1C3)c1ccc(OC2CCC(COn3cccn3)CC2)cc1 (stereo not shown) [Example 2e, 4-[4-(Pyrazol-1-yl-oxy-methyl)-cyclohexyloxy]-N-adamantan-2-yl-benzamide] |
| 134 | Cn1cnc(S(=O)(=O)N2CCC(COc3ccc(C(=O)N4CCCC5CCCCC54)cc3)CC2)c1 (stereo not shown) [Example 2f, {4-[1-(1-Methyl-1H-imidazole-4-sulfonyl)-piperidin-4-yl-methoxy]-phenyl}-(octahydro-quinolin-1-yl)-methanone] |
| 359 | O=C(c1ccc(N2[C@@H]3CC[C@H]2CC(Oc2ccccn2)C3)cc1)N1CCCC2CCCCC21 (stereo partly drawn) [Example 2h, (Octahydro-quinolin-1-yl)-{4-[(1S,5R)-3-(pyridin-2-yloxy)-8-aza-bicyclo[3.2.1]oct-8-yl]-phenyl}-methanone] |
| 405 | O=C(O)C1CCC(Oc2ccc(C(=O)N3CCCC4CCCCC43)cc2)CC1 (stereo not shown) [Example 3a, 4-[4-(Octahydro-quinoline-1-carbonyl)-phenoxy]-cyclohexanecarboxylic acid] |
| 1400 | CC(C)CC(=O)N1CCC(Oc2ccc(C(=O)N3CC4CCC(CC4)C3)cc2)CC1 [Example 3b, 1-{4-[4-(3-Aza-bicyclo-[3.2.2]nonane-3-carbonyl)-phenoxy]-piperidin-1-yl}-3-methyl-butan-1-one] |
| 96 | O=C(NC1C2CC3CC(C2)CC1C3)c1ccc(O[C@H]2CC[C@@H](NS(=O)(=O)c3ccccn3)CC2)cc1 (stereo partly drawn) [Example 3c, Cis-N-Adamantan-2-yl-4-[4-(pyridine-2-sulfonylamino)-cyclohexyloxy]-benzamide] |
| 300 | O=C(O)c1ccc(OCC2CCC(Oc3ccc(C(=O)NC4C5CC6CC(C5)CC4C6)cc3)CC2)cc1 (stereo not shown) [Example 3e, 4-{4-[4-(Adamantan-2-yl-carbamoyl)-phenoxy]-cyclo-hexylmethoxy}-benzoic acid] |

| IC50 [nM] | Compound |
| --- | --- |
| 271 | CCS(=O)(=O)N1CCC(COc2ccc(C(=O)N3CCCC4CCCCC43)cc2)CC1 (stereo not shown) [Example 3f, [4-(1-Ethanesulfonyl-piperidin-4-yl-methoxy)-phenyl]-(octahydro-quinolin-1-yl)-methanone] |
| 2820 | Cc1ccc(S(=O)(=O)NC(=O)N2CCC(Oc3ccc(C(=O)N4CC5CCC(CC5)C4)cc3)C2)cc1 (stereo not shown) [Example 3g, N-{3-[4-(3-Aza-bicyclo-[3.2.2]nonane-3-carbonyl)-phenoxy]-pyrrolidine-1-carbonyl}-4-methyl-benzenesulfonamide] |
| 976 | O=C(NC1C2CC3CC(C2)CC1C3)c1ccc(N2[C@@H]3CC[C@H]2CC(Oc2ccccn2)C3)cc1 (stereo partly drawn) [Example 3h, 4-[(1S,5R)-3-(Pyridin-2-yloxy)-8-aza-bicyclo[3.2.1]oct-8-yl]-N-adamantan-2-yl-benzamide] |
| 2310 | O=C(C1CC1)N1CCC(Oc2ccc(C(=O)N3CC4CCCC3C4)cc2)CC1 (stereo not shown) [Example 4b, (6-Aza-bicyclo[3.2.1]oct-6-yl)-[4-(1-cyclopropane-carbonyl-piperidin-4-yloxy)-phenyl]-methanone] |
| 51 | O=C(c1ccc(O[C@H]2CC[C@@H](NS(=O)(=O)c3ccccn3)CC2)cc1)N1CCCC2CCCCC21 (stereo partly drawn) [Example 4c, Cis-Pyridine-2-sulfonic acid {4-[4-(octahydro-quinoline-1-carbonyl)-phenoxy]-cyclo-hexyl}-amide] |
| 482 | C=CCOC(=O)c1ccc(OCC2CCC(Oc3ccc(C(=O)NC4C5CC6CC(C5)CC4C6)cc3)CC2)cc1 (stereo not shown) [Example 4e, 4-{4-[4-(Adamantan-2-yl-carbamoyl)-phenoxy]-cyclo-hexylmethoxy}-benzoic acid allyl ester] |
| 1360 | CN(C(=O)c1ccc(OCC2CCN(S(=O)(=O)c3ccccn3)CC2)cc1)C1C2CC3CC1CC(O)(C3)C2 (stereo not shown) [Example 4f, N-(5-Hydroxy-adamantan-2-yl)-N-methyl-4-[1-(pyridine-2-sulfonyl)-piperidin-4-yl-methoxy]-benzamide] |
| 588 | CC1(C)CC2CC(C)(CN2C(=O)c2ccc(O[C@H]3CC[C@@H](C(=O)O)CC3)cc2)C1 (stereo partly drawn) [Example 5a, Cis-4-[4-(1,3,3-trimethyl-6-aza-bicyclo [3.2.1]octane-6-carbonyl)-phenoxy]-cyclo-hexanecarboxylic acid] |
| 1300 | CC(C)CC(=O)N1CCC(Oc2ccc(C(=O)N3CC4CCCC3C4)cc2)CC1 (stereo not shown) [Example 5b, 1-{4-[4-(6-Aza-bicyclo[3.2.1]-octane-6-carbonyl)-phenoxy]-piperidin-1-yl}-3-methyl-butan-1-one] |
| 158 | O=C(NC1C2CC3CC(C2)CC1C3)c1ccc(O[C@H]2CC[C@@H](NC(=O)C3CC3)CC2)cc1 (stereo partly drawn) [Example 5c, Cis-N-Adamantan-2-yl-4-[4-(cyclopropanecarbonyl-amino)-cyclohexyloxy]-benzamide] |
| 1800 | CC(C)NC(=O)N1CCC(COc2ccc(C(=O)N(C)C3C4CC5CC3CC(O)(C5)C4)cc2)CC1 (stereo not shown) [Example 5f, 4-{4-[(5-Hydroxy-adamantan-2-yl)-methyl-carbamoyl]-phenoxy-methyl}-piperidine-1-carboxylic acid isopropyl-amide] |
| 1200 | CC1(C)CC2CC(C)(CN2C(=O)c2ccc(O[C@H]3CC[C@H](C(=O)O)CC3)cc2)C1 (stereo partly drawn) [Example 6a, Trans-4-{4-(1,3,3-trimethyl-6-aza-bicyclo [3.2.1]oct-ane6-carbonyl)-phenoxy]-cyclo-hexanecarboxylic acid] |
| 120 | O=C(N[C@H]1CC[C@@H](Oc2ccc(C(=O)N3CCCC4CCCCC43)cc2)CC1)C1CC1 (stereo partly drawn) [Example 6c, Cis-Cyclopropanecarboxylic acid {4-[4-(octahydro-quino-line-1-carbonyl)-phenoxy]-cyclohexyl}-amide] |
| 2270 | CN(C(=O)c1ccc(OCC2CCN(S(=O)(=O)c3cn(C)cn3)CC2)cc1)C1C2CC3CC1CC(O)(C3)C2 (stereo not shown) [Example 6f, N-(5-Hydroxy-adamantan-2-yl)-N-methyl-4-[1-(1-methyl-1H-imidazole-4-sulfonyl)-piperidin-4-ylmethoxy]-benzamide] |
| 1400 | O=C(O)C1CCC(Oc2ccc(C(=O)N3CC4CCC(CC4)C3)cc2)C1 (stereo not shown) [Example 7a, 3-[4-(3-Aza-bicyclo[3.2.2]-nonane-3-carbonyl)-phenoxy]-cyclopentane-carboxylic acid] |
| 1120 | CN(C(=O)c1ccc(OC2CCC(NS(=O)(=O)c3ccccn3)CC2)cc1)C1C2CC3CC1CC(O)(C3)C2 (stereo not shown) [Example 7c, N-(5-Hydroxy-adamantan-2-yl)-N-methyl-4-[4-(pyridine-2-sulfonylamino)-cyclohexyl-oxy]-benzamide] |

| Compound | IC50 [nM] |
| --- | --- |
| CC(C)(C)OC(=O)N1C[C@@H]2CC1CN2c1ccc(C(=O)N2CC3CCC(CC3)C2)cc1 (stereo in doubt) [Example 1h, (1S,4S)-5-[4-(3-Aza-bicyclo[3.2.2]nonane-3-carbonyl)-phenyl]-2,5-diaza-bicyclo[2.2.1]heptane-2-carboxylic acid tert-butyl ester] | 389 |
